{"source": "patent US9205132B2", "about": "“Method of lowering mortality” (CORTHERA, INC., priority 2008, dated 2015)", "key": {"[1]": {"system": "patients with systemic sclerosis", "experiment": "Clinical trial of relaxin in patients with systemic sclerosis, continuous SQ infusion for six months", "assay_type": "in vivo, human", "text": "Overview. Clinical trials with relaxin have also been conducted on systemic sclerosis patients, 257 human subjects who suffer from systemic sclerosis, a serious fibrotic disease, have been treated with relaxin by continuous and subcutaneous (SQ) infusion for six months. […] These findings support the hypothesis that relaxin administration was associated with balanced systemic and renal vasodilation."}, "[2]": {"system": "patients with acute heart failure (AHF)", "experiment": "Post-discharge outcomes to Day 60 and Day 180 (death, rehospitalization), Pre-RELAX-AHF trial", "details": "for Days alive out of hospital: Day 60, mean ± SD", "protocol": "Patient-reported dyspnea was assessed using both a standard 7-point Likert Scale and a standard 100-mm Visual Analog Scale (VAS). Assessments were performed at baseline (VaS only), 6 h, 12 h, 24 h, 48 h after initiation of drug therapy and at Days 3, 4, 5 and 14. Questionnaires were administered in the local language, and investigators received training in the standardized administration of these evaluations. Daily, serial physician-reported assessments of heart failure signs and symptoms were, conducted including jugular venous distension, rales, edema, orthopnea, and dyspnea on exertion, in-hospital worsening heart failure was defined as a physician-determined assessment based on worsening symptoms or signs of heart failure and the need for the addition or institution of IV medications or mechanical support to treat AHF. Vital status and rehospitalization information was collected by telephone at Day 30, Day 60 and (vital status only at.) Day 180. When the last enrolled patient reached Day 60, telephone contact was made with all patients who were between Day 60 and Day 180 of follow-up to complete the study.\n1.) Relief of dyspnea, assessed with two complementary Instruments; (a) Change in dyspnea by Likert scale, and (b) Change from baseline by Visual Analog Scale. 2.) In-hospital worsening heart failure (WMF) to Day 5. […] 4.) Length of initial hospital stay. 5.) Days alive and out-of-hospital to Day 60. 6.) Death due to cardiovascular causes or rehospitalization for heart failure or renal failure to Day 60. 7.) Mortality due to cardiovascular causes to Day 180. In addition, serial assessments of safety were performed including vital-signs, physical examinations, adverse events and clinical laboratory evaluations.\nData are presented as means with standard deviations unless otherwise specified. Missing data were generally imputed by a last-observation-carried-forward approach. The worst observed dyspnea Likert or VAS score was carried forward from the time of death or worsening heart failure. The area under the curve representing the change in VAS score from baseline through Day 5 was computed by trapezoidal rule. For patients who died during the initial hospitalization, length of stay was imputed as the maximum observed plus 1 day (33 days). […] To control for regional variations in this relatively small study, region as a covariate or stratifying variable was prospectively pre-specified in the analyses of treatment effect. Rehospitalization and mortality rates through Day 180 were estimated using Kaplan-Meier (product-limit) methods, and groups compared using the Wald test of the treatment effect from Cox regression models, where time-to-event was censored at last patient contact for patients without the event of interest."}, "[3]": {"system": "patients with acute heart failure (AHF)", "experiment": "In-hospital short-term outcomes (worsening heart failure, length of stay, signs of heart failure, diuretic and nitroglycerin use, body weight), Pre-RELAX-AHF trial", "assay_type": "in vivo, human", "details": "for Length of Hospital Stay: mean ± SD", "procedure": "Study Procedures. The study was approved by the relevant ethics committees, institutional review hoards and regulatory authorities, and conducted under the International Conference on Harmonization Good Clinical Practice guidelines. All patients provided informed written consent prior to participation. […] The placebo used for the study was the same solution as the diluent used to prepare the 100 μg/kg/day dose. The randomization ratio was 3:2:2:2:2, respectively, Relaxin (Corthera, San Mateo, Calif.) was manufactured using recombinant techniques and was identical to the naturally-occurring peptide hormone. By protocol, the study drug infusion was to be terminated if the patient's SBP was reduced to <100 mmHg or by >40 mmHg compared to baseline in two successive measurements, 15 minutes apart. Investigators were not prohibited from utilizing any standard medication, thought necessary to treat patients enrolled in the study, including additional vasodilators, following a 4-hour washout period during which time IV vasodilators, IV pure inotropes and meals were withheld, hemodynamic, renal, and clinical responses to 48 hours of study drug infusion were assessed.\nStudy Endpoints. […] 4.) Length of initial hospital stay."}, "[4]": {"details": "relaxin for 48 hours, AHF patients"}}, "note": "Entries after “also recorded” stand apart in the source; their conditions may differ. Marks after values point to notes of the source that are not given here.", "data": [{"substance": "Relaxin", "values": [{"measurement": "blood pressure", "setting": "[1]", "result": "stable decreases in blood pressure"}, {"measurement": "hypotensive events", "setting": "[1]", "result": "did not experience any serious hypotensive events; also recorded: None of the patients developed hypotension during dosing"}, {"measurement": "predicted creatinine clearance (renal function)", "setting": "[1]", "result": "statistically significant increase in predicted creatinine clearance; also recorded: stable improvement in renal function"}, {"measurement": "estimated hazard reduction, death due to cardiovascular causes or rehospitalization due to heart failure or renal failure at day 60", "setting": "[2]; 30 mcg/kg/d IV 48 h, vs placebo", "result": 87, "unit": "%"}, {"measurement": "Days alive out of hospital", "setting": "[2]; 10 mcg/kg/d IV 48 h", "result": "47.0 ± 13.0", "unit": "days"}, {"measurement": "Days alive out of hospital", "setting": "[2]; 30 mcg/kg/d IV 48 h", "result": "47.9 ± 10.1", "unit": "days"}, {"measurement": "Days alive out of hospital", "setting": "[2]; 100 mcg/kg/d IV 48 h", "result": "48 ± 10.1", "unit": "days"}, {"measurement": "Days alive out of hospital", "setting": "[2]; 250 mcg/kg/d IV 48 h", "result": "47.6 ± 12.0", "unit": "days"}, {"measurement": "All-cause death (KM %)", "setting": "[2]; Day 180, 10 mcg/kg/d IV 48 h", "result": 5.0, "unit": "%"}, {"measurement": "mean number of days alive and out-of-hospital at Day 60, greater than placebo", "setting": "[2]; relaxin-treated patients vs placebo", "result": "approximately 4 days"}, {"measurement": "% of subjects at Day 5 with: JVP <6 cm", "setting": "[3]; 10 mcg/kg/d IV 48 h", "result": 72.5, "unit": "%"}, {"measurement": "% of subjects at Day 5 with: No edema", "setting": "[3]; 10 mcg/kg/d IV 48 h", "result": 55.0, "unit": "%"}, {"measurement": "% of subjects at Day 5 with: No rales", "setting": "[3]; 10 mcg/kg/d IV 48 h", "result": 65.0, "unit": "%"}, {"measurement": "Worsening HF through Day 5 (%)", "setting": "[3]; 10 mcg/kg/d IV 48 h", "result": 20.0, "unit": "%"}, {"measurement": "patients receiving intravenous nitroglycerin during the first 24 hours", "setting": "[3]; 10 mcg/kg/d IV 48 h", "result": 10.0, "unit": "%"}, {"measurement": "Length of Hospital Stay", "setting": "[3]; 10 mcg/kg/d IV 48 h", "result": "10.9 ± 8.5", "unit": "days"}, {"measurement": "Median change in body weight from baseline to Day 14 [kg; median (Q1; Q3)]", "setting": "[3]; 10 mcg/kg/d IV 48 h", "result": -2.0, "unit": "kg"}, {"measurement": "Median total IV diuretic dose from randomization to Day 5 [mg; median (Q1-Q3)]", "setting": "[3]; 10 mcg/kg/d IV 48 h", "result": 100, "unit": "mg"}, {"measurement": "% of subjects at Day 5 with: JVP <6 cm", "setting": "[3]; 30 mcg/kg/d IV 48 h", "result": 78.6, "unit": "%"}, {"measurement": "% of subjects at Day 5 with: No edema", "setting": "[3]; 30 mcg/kg/d IV 48 h", "result": "64.3 † %"}, {"measurement": "% of subjects at Day 5 with: No rales", "setting": "[3]; 30 mcg/kg/d IV 48 h", "result": 76.2, "unit": "%"}, {"measurement": "Worsening HF through Day 5 (%)", "setting": "[3]; 30 mcg/kg/d IV 48 h", "result": 11.9, "unit": "%"}, {"measurement": "patients receiving intravenous nitroglycerin during the first 24 hours", "setting": "[3]; 30 mcg/kg/d IV 48 h", "result": 9.5, "unit": "%"}, {"measurement": "Length of Hospital Stay", "setting": "[3]; 30 mcg/kg/d IV 48 h", "result": "10.2 ± 6.1", "unit": "days"}, {"measurement": "Median change in body weight from baseline to Day 14 [kg; median (Q1; Q3)]", "setting": "[3]; 30 mcg/kg/d IV 48 h", "result": -3.0, "unit": "kg"}, {"measurement": "Median total IV diuretic dose from randomization to Day 5 [mg; median (Q1-Q3)]", "setting": "[3]; 30 mcg/kg/d IV 48 h", "result": 100, "unit": "mg"}, {"measurement": "% of subjects at Day 5 with: JVP <6 cm", "setting": "[3]; 100 mcg/kg/d IV 48 h", "result": 73.0, "unit": "%"}, {"measurement": "% of subjects at Day 5 with: No edema", "setting": "[3]; 100 mcg/kg/d IV 48 h", "result": "51.4 * %"}, {"measurement": "% of subjects at Day 5 with: No rales", "setting": "[3]; 100 mcg/kg/d IV 48 h", "result": 70.3, "unit": "%"}, {"measurement": "Worsening HF through Day 5 (%)", "setting": "[3]; 100 mcg/kg/d IV 48 h", "result": 13.5, "unit": "%"}, {"measurement": "patients receiving intravenous nitroglycerin during the first 24 hours", "setting": "[3]; 100 mcg/kg/d IV 48 h", "result": 13.5}, {"measurement": "Length of Hospital Stay", "setting": "[3]; 100 mcg/kg/d IV 48 h", "result": "11.1 ± 6.6", "unit": "days"}, {"measurement": "Median change in body weight from baseline to Day 14 [kg; median (Q1; Q3)]", "setting": "[3]; 100 mcg/kg/d IV 48 h", "result": -2.5, "unit": "kg"}, {"measurement": "Median total IV diuretic dose from randomization to Day 5 [mg; median (Q1-Q3)]", "setting": "[3]; 100 mcg/kg/d IV 48 h", "result": "90 + mg"}, {"measurement": "% of subjects at Day 5 with: JVP <6 cm", "setting": "[3]; 250 mcg/kg/d IV 48 h", "result": "76.6 + %"}, {"measurement": "% of subjects at Day 5 with: No edema", "setting": "[3]; 250 mcg/kg/d IV 48 h", "result": "61.2 † %"}, {"measurement": "% of subjects at Day 5 with: No rales", "setting": "[3]; 250 mcg/kg/d IV 48 h", "result": 71.4, "unit": "%"}, {"measurement": "Worsening HF through Day 5 (%)", "setting": "[3]; 250 mcg/kg/d IV 48 h", "result": 10.2, "unit": "%"}, {"measurement": "patients receiving intravenous nitroglycerin during the first 24 hours", "setting": "[3]; 250 mcg/kg/d IV 48 h", "result": 4.1, "unit": "%"}, {"measurement": "Length of Hospital Stay", "setting": "[3]; 250 mcg/kg/d IV 48 h", "result": "10.6 ± 6.6", "unit": "days"}, {"measurement": "Median change in body weight from baseline to Day 14 [kg; median (Q1; Q3)]", "setting": "[3]; 250 mcg/kg/d IV 48 h", "result": -2.0, "unit": "kg"}, {"measurement": "Median total IV diuretic dose from randomization to Day 5 [mg; median (Q1-Q3)]", "setting": "[3]; 250 mcg/kg/d IV 48 h", "result": 140, "unit": "mg"}, {"measurement": "period over which the improvements lasted", "setting": "[3]; relaxin administered for as little as 48 hours", "result": 14, "unit": "days"}, {"measurement": "reduction in excessive body weight due to fluid retention, average loss", "setting": "[3]; [4]", "result": "about 1 kg"}, {"measurement": "shorter hospital stays", "setting": "[3]; [4]", "result": "≤ 2.5", "unit": "days"}, {"measurement": "mean length of stay for the index hospitalization, shorter than for placebo", "setting": "[3]; relaxin groups 10-250 mcg/kg/d vs placebo", "result": "0.9 to 1.8", "unit": "days"}]}]}
